The values below come from PubChem BioAssay (NCI).

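Grown in 96-well plates, cells were treated for 48 hours with each compound at five concentrations. Insufficient inhibition: endpoint recorded as highest concentration tested. TGI: total growth inhibition.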

The test system of one experiment is NCI/ADR-RES ovarian. The experiment is described as follows: growth of human tumour cells (NCI), 48 h.
In turn, `O=C1/C(=C\c2ccccc2)C(NC2CCCCC2)c2ccccc21` (stereo unspecified) gave a TGI of 98.5 µM.
The molecule `CCOC(=O)C1(C/C=C/CBr)Cc2ccccc2C1=O` (stereo unspecified) registered a TGI of 5.02 µM.
As for `COc1ccc(-c2c(C#N)c(-c3ccc(C)cc3)n(NS(=O)(=O)c3ccc(C)cc3)c(=O)c2C#N)cc1`, the TGI was > 100 µM.
For `Clc1ccccc1C(SCc1ccccc1)SCc1ccccc1`, the TGI is > 100 µM.

In another experiment the test system is PC-3 prostate. The experiment is described as follows: growth of human tumour cells (NCI), 48 h.
For the molecule `COc1ccc(-c2cc(O)c3nc4ccccc4n3c2)cc1`, the TGI is > 100 µM.
`CC(C)=CCc1c2c(c3occ(-c4ccc(O)cc4)c(=O)c3c1O)CC(C(C)(C)O)O2` (stereo unspecified): the TGI came out at 26.7 µM.
Still for that read-out and setting: under `CC1(C)N=[N+]([O-])C1(C)C` stands > 100 µM.
With `COc1ccc(C2CC(c3c(O)ccc4ccccc34)=NN2C(C)=O)cc1OC` (stereo unspecified), the TGI was > 100 µM.
In the case of `C1CN(c2nc3c(nnc4nc(N5CCOCC5)sc43)s2)CCO1`, the TGI was > 100 µM.
The same measure, in the same setting: the result for `NC(N)=N/N=C/c1c(-c2ccc(N)cc2)nc2sccn12` reads 58.7 µM.
As for `CCOC(=O)CSc1c(C(=O)OCC)c(=O)n(-c2ccccc2)c(=S)n1-c1ccccc1`, the TGI was > 100 µM.
`C=CC1(C)CCC2C(=CCC3C2(C)CC(O)C(O)C3(C)COC2OC(C(=O)O)C(O)C(O)C2O)C1` (stereo unspecified) (tested in a mixture with another compound): the TGI was > 100 µM.
Consider `COCO[C@@H]1C[C@H]2C(=O)Nc3ccccc3C(=O)N2C1`, for which the TGI was > 100 µM.
`O=c1c2cc([N+](=O)[O-])cnc2sn1-c1ccc([N+](=O)[O-])cc1`: the TGI amounted to 83.8 µM.
The same measure, in the same setting: under `Cc1ccc(C(=O)O)cc1S(=O)(=O)Nn1cnc2ccc(S(=O)(=O)Nc3ccccc3C(=O)O)cc2c1=O` stands > 100 µM; under `Cc1ccc(-c2n[nH]c(=O)n2N2C(=O)c3ccccc3C2=O)cc1`, > 100 µM; under `S=C1Nc2ccccc2SC1c1ccccc1` (stereo unspecified), > 100 µM.
With `O=[N+]([O-])c1ccc2c(c1)c(OCc1ccccc1)nn2Cc1ccccc1`, the TGI was > 100 µM.
Regarding `Cc1cc(Cc2cc(C)c(N)cc2N)c(N)cc1N`, the TGI was > 100 µM.
Turning to `COC(=O)c1ccccc1CC1Cc2ccc3c(c2C1=O)CCCC3` (stereo unspecified), the TGI is > 100 µM.
As to `O=C1/C(=C\c2ccccc2)C(NC2CCCCC2)c2ccccc21` (stereo unspecified), the TGI came to 3.78 µM.
In the case of `CCOC(=O)C1(C/C=C/CBr)Cc2ccccc2C1=O` (stereo unspecified), the TGI came to 19.2 µM.
Turning to `COc1ccc(-c2c(C#N)c(-c3ccc(C)cc3)n(NS(=O)(=O)c3ccc(C)cc3)c(=O)c2C#N)cc1`, the TGI is > 100 µM.
Consider `Clc1ccccc1C(SCc1ccccc1)SCc1ccccc1`, for which the TGI is > 100 µM.

For another experiment, the system named is SF-268 CNS. In words: growth of human tumour cells (NCI), 48 h.
With `COc1ccc(-c2cc(O)c3nc4ccccc4n3c2)cc1`, the TGI is > 100 µM.
Regarding `C[C@@H]1CC[C@]2(C(=O)O)CC[C@]3(C)C(=CC[C@@H]4[C@@]5(C)CC[C@H](O)C(C)(C)[C@@H]5CC[C@]43C)[C@@H]2[C@]1(C)O`, the TGI was determined as 34.2 µM.
Molecule `CC(C)=CCc1c2c(c3occ(-c4ccc(O)cc4)c(=O)c3c1O)CC(C(C)(C)O)O2` (stereo unspecified) had a TGI of 48.5 µM.
As for `CC1(C)N=[N+]([O-])C1(C)C`, the TGI is > 100 µM.
Turning to `COc1ccc(C2CC(c3c(O)ccc4ccccc34)=NN2C(C)=O)cc1OC` (stereo unspecified), the TGI was > 100 µM.
On to `C1CN(c2nc3c(nnc4nc(N5CCOCC5)sc43)s2)CCO1`, for which the TGI was > 100 µM.
The same measure, in the same setting: under `NC(N)=N/N=C/c1c(-c2ccc(N)cc2)nc2sccn12` stands > 100 µM; under `CN1C(=O)C2CCC(=O)N2c2cccnc21` (stereo unspecified), > 100 µM.
`CCOC(=O)CSc1c(C(=O)OCC)c(=O)n(-c2ccccc2)c(=S)n1-c1ccccc1`: the TGI is > 100 µM.
Consider `C=CC1(C)CCC2C(=CCC3C2(C)CC(O)C(O)C3(C)COC2OC(C(=O)O)C(O)C(O)C2O)C1` (stereo unspecified) (tested in a mixture with another compound), for which the TGI was > 100 µM.
Consider `COCO[C@@H]1C[C@H]2C(=O)Nc3ccccc3C(=O)N2C1`, for which the TGI is > 100 µM.
`O=c1c2cc([N+](=O)[O-])cnc2sn1-c1ccc([N+](=O)[O-])cc1` yielded a TGI of 67.6 µM.
Turning to `Cc1ccc(C(=O)O)cc1S(=O)(=O)Nn1cnc2ccc(S(=O)(=O)Nc3ccccc3C(=O)O)cc2c1=O`, the TGI was > 100 µM.
As for `Cc1ccc(-c2n[nH]c(=O)n2N2C(=O)c3ccccc3C2=O)cc1`, the TGI was > 100 µM.
For `S=C1Nc2ccccc2SC1c1ccccc1` (stereo unspecified), the TGI was > 100 µM.
Molecule `CN(C)C(=O)O/N=C1/C(c2c(O)[nH]c3ccccc23)=Nc2ccccc21` had a TGI of 28.5 µM.
`O=[N+]([O-])c1ccc2c(c1)c(OCc1ccccc1)nn2Cc1ccccc1`: the TGI was > 100 µM.
Turning to `Cc1cc(Cc2cc(C)c(N)cc2N)c(N)cc1N`, the TGI is > 100 µM.
On the same count and under the same terms, the result for `COC(=O)c1ccccc1CC1Cc2ccc3c(c2C1=O)CCCC3` (stereo unspecified) reads > 100 µM; that for `O=C1/C(=C\c2ccccc2)C(NC2CCCCC2)c2ccccc21` (stereo unspecified), 13 µM; that for `CCOC(=O)C1(C/C=C/CBr)Cc2ccccc2C1=O` (stereo unspecified), 10 µM.
In the case of `COc1ccc(-c2c(C#N)c(-c3ccc(C)cc3)n(NS(=O)(=O)c3ccc(C)cc3)c(=O)c2C#N)cc1`, the TGI was > 100 µM.
Turning to `Clc1ccccc1C(SCc1ccccc1)SCc1ccccc1`, the TGI is > 100 µM.

The subject of another experiment is T-47D breast. In words: growth of human tumour cells (NCI), 48 h.
Molecule `C[C@@H]1CC[C@]2(C(=O)O)CC[C@]3(C)C(=CC[C@@H]4[C@@]5(C)CC[C@H](O)C(C)(C)[C@@H]5CC[C@]43C)[C@@H]2[C@]1(C)O` had a TGI of 32.9 µM.
The same measure, in the same setting: under `CC(C)=CCc1c2c(c3occ(-c4ccc(O)cc4)c(=O)c3c1O)CC(C(C)(C)O)O2` (stereo unspecified) stands 34.1 µM.
In the case of `CC1(C)N=[N+]([O-])C1(C)C`, the TGI is > 100 µM.
`COc1ccc(C2CC(c3c(O)ccc4ccccc34)=NN2C(C)=O)cc1OC` (stereo unspecified): the TGI is > 100 µM.
Still for that read-out and setting: the result for `C1CN(c2nc3c(nnc4nc(N5CCOCC5)sc43)s2)CCO1` reads > 100 µM.
Consider `NC(N)=N/N=C/c1c(-c2ccc(N)cc2)nc2sccn12`, for which the TGI is 90.3 µM.
Regarding `CN1C(=O)C2CCC(=O)N2c2cccnc21` (stereo unspecified), the TGI was > 100 µM.
On the same count and under the same terms, under `CCOC(=O)CSc1c(C(=O)OCC)c(=O)n(-c2ccccc2)c(=S)n1-c1ccccc1` stands > 100 µM; under `C=CC1(C)CCC2C(=CCC3C2(C)CC(O)C(O)C3(C)COC2OC(C(=O)O)C(O)C(O)C2O)C1` (stereo unspecified) (tested in a mixture with another compound), > 100 µM; under `COCO[C@@H]1C[C@H]2C(=O)Nc3ccccc3C(=O)N2C1`, > 100 µM.
The same measure, in the same setting: the result for `O=c1c2cc([N+](=O)[O-])cnc2sn1-c1ccc([N+](=O)[O-])cc1` reads 83.6 µM; that for `Cc1ccc(-c2n[nH]c(=O)n2N2C(=O)c3ccccc3C2=O)cc1`, > 100 µM; that for `S=C1Nc2ccccc2SC1c1ccccc1` (stereo unspecified), > 100 µM.
`CN(C)C(=O)O/N=C1/C(c2c(O)[nH]c3ccccc23)=Nc2ccccc21` gave a TGI of 50.6 µM.
As for `O=[N+]([O-])c1ccc2c(c1)c(OCc1ccccc1)nn2Cc1ccccc1`, the TGI was > 100 µM.
With `Cc1cc(Cc2cc(C)c(N)cc2N)c(N)cc1N`, the TGI was > 100 µM.
For the molecule `COC(=O)c1ccccc1CC1Cc2ccc3c(c2C1=O)CCCC3` (stereo unspecified), the TGI is > 78.1 µM.
`O=C1/C(=C\c2ccccc2)C(NC2CCCCC2)c2ccccc21` (stereo unspecified) showed a TGI of 4.69 µM.
As to `CCOC(=O)C1(C/C=C/CBr)Cc2ccccc2C1=O` (stereo unspecified), the TGI came out at 12.2 µM.
